Data from patent US8802597B2, “Herbicidal pyrimidines” (E I du Pont de Nemours and Company, priority 2003, dated 2014).

Legend:
Experiment in all cases: Test H mixtures of compound 1 with diflufenzopyr
Assay type in all cases: in vivo
Details in all cases: foliage spray
[1] = test system: giant foxtail (SETFA, Setaria faberi Herrm.)
Source text: (§1) This test evaluated the effect of mixtures of compound 1 with diflufenzopyr on several plant species. Seeds of test plants consisting of large crabgrass (DIGSA, Digitaria sanguinalis (L.) Scop.), lambsquarters (CHEAL, Chenopodium album L.), redroot pigweed (AMARE, Amaranthus retroflexus L.), cocklebur (XANST, Xanthium strumarium L.), barnyardgrass (ECHCG; Echinochloa crus-galli (L.) Beauv.), corn (ZEAMD, Zea mays L. cv. ‘Pioneer 33G26’), scarlet (red) morningglory (IPOCO, Ipomoea coccinea L.), giant foxtail (SETFA, Setaria faberi Herrm.) and velvetleaf (ABUTH, Abutilon theophrasti Medik.) were planted in pots containing Redi-Earth® planting medium (Scotts Company, 14111 Scottslawn Road, Marysville, Ohio 43041) comprising spaghnum peat moss, vermiculite, wetting agent and starter nutrients. Seeds of small-seeded species were planted about 1 cm deep; larger seeds were planted about 2.5 cm deep. Plants were grown in a greenhouse using supplemental lighting to maintain a photoperiod of about 14 hours; daytime and nighttime temperatures were about 25-30° C. and 22-25° C., respectively. Balanced fertilizer was applied through the watering system. The plants were grown for 7 to 11 days so that at time of treatment the plants ranged in height from 2 to 18 cm (1- to 4-leaf stage). Treatments consisted of Compound 1 and diflufenzopyr alone and in combination, suspended or dissolved in an aqueous solvent comprising glycerin and Tween nonionic surfactant and applied as a foliage spray using a volume of 541 L/ha. Each treatment was replicated four times. […] Treated plants and controls were maintained in the greenhouse and watered as needed with care to not wet the foliage for the first 24 hours after treatment. The effects on the plants approximately 3 weeks after treatment were visually compared to untreated controls. Plant response ratings were calculated as the means of the four replicates, based on a scale of 0 to 100 where 0 is no effect and 100 is complete control. Colby's Equation was used to determine the herbicidal effects expected from the mixtures. Colby's Equation (Colby, S. R. “Calculating Synergistic and Antagonistic Responses of Herbicide Combinations,” Weeds, 15(1), pp 20-22 (1967)) calculates the expected additive effect of herbicidal mixtures, and for two active ingredients is of the form: Pa+b=Pa+Pb−(PaPb/100) wherein Pa+b is the percentage effect of the mixture expected from additive contribution of the individual components, • Pa is the observed percentage effect of the first active ingredient at the same use rate as in the mixture, and • Pb is the observed percentage effect of the second active ingredient at the same use rate as in the mixture.

[2] = test system: large crabgrass (DIGSA, Digitaria sanguinalis (L.) Scop.)
Source text: as §1

[3] = test system: scarlet (red) morningglory (IPOCO, Ipomoea coccinea L.)
Source text: as §1

[4] = test system: velvetleaf (ABUTH, Abutilon theophrasti Medik.)
Source text: as §1

[5] = test system: corn (ZEAMD, Zea mays L. cv. ‘Pioneer 33G26’)
Source text: as §1

[6] = test system: cocklebur (XANST, Xanthium strumarium L.)
Source text: as §1

[7] = test system: lambsquarters (CHEAL, Chenopodium album L.)
Source text: as §1

**Q.** How did the “Obsd. observed effect (0 to 100 scale)” value ([1]; Cmpd 1 31 g a.i./ha) turn out when `CCOC(=O)c1nc(C2CC2)nc(N)c1Br` [Compound 1, ethyl 6-amino-5-bromo-2-cyclopropyl-4-pyrimidinecarboxylate] was run?
**A.** 2

**Q.** What about the “Obsd. observed effect (0 to 100 scale)” value ([1]; Cmpd 1 62 g a.i./ha) of the same compound?
**A.** 4

**Q.** And the “Obsd. observed effect (0 to 100 scale)” value ([1]; Cmpd 1 125 g a.i./ha)?
**A.** 65

**Q.** And the “Obsd. observed effect (0 to 100 scale)” value ([2]; Cmpd 1 31 g a.i./ha)?
**A.** 7

**Q.** And the “Obsd. observed effect (0 to 100 scale)” value ([2]; Cmpd 1 62 g a.i./ha)?
**A.** 37

**Q.** And the “Obsd. observed effect (0 to 100 scale)” value ([2]; Cmpd 1 125 g a.i./ha)?
**A.** 81

**Q.** What about the “Obsd. observed effect (0 to 100 scale)” value ([3]; Cmpd 1 31 g a.i./ha) of the same compound?
**A.** 92

**Q.** What about the “Obsd. observed effect (0 to 100 scale)” value ([3]; Cmpd 1 62 g a.i./ha) of the same compound?
**A.** 97

**Q.** And the “Obsd. observed effect (0 to 100 scale)” value ([3]; Cmpd 1 125 g a.i./ha)?
**A.** 100

**Q.** And the “Obsd. observed effect (0 to 100 scale)” value ([4]; Cmpd 1 31 g a.i./ha)?
**A.** 14

**Q.** And the “Obsd. observed effect (0 to 100 scale)” value ([4]; Cmpd 1 62 g a.i./ha)?
**A.** 26

**Q.** What about the “Obsd. observed effect (0 to 100 scale)” value ([4]; Cmpd 1 125 g a.i./ha) of the same compound?
**A.** 93

**Q.** What about the “Obsd. observed effect (0 to 100 scale)” value ([5]; Cmpd 1 31 g a.i./ha) of the same compound?
**A.** 2

**Q.** And the “Obsd. observed effect (0 to 100 scale)” value ([5]; Cmpd 1 62 g a.i./ha)?
**A.** 5

**Q.** What about the “Obsd. observed effect (0 to 100 scale)” value ([5]; Cmpd 1 125 g a.i./ha) of the same compound?
**A.** 22

**Q.** And the “Obsd. observed effect (0 to 100 scale)” value ([6]; Cmpd 1 31 g a.i./ha)?
**A.** 87

**Q.** And the “Obsd. observed effect (0 to 100 scale)” value ([6]; Cmpd 1 62 g a.i./ha)?
**A.** 98

**Q.** What about the “Obsd. observed effect (0 to 100 scale)” value ([6]; Cmpd 1 125 g a.i./ha) of the same compound?
**A.** 97

**Q.** What about the “Obsd. observed effect (0 to 100 scale)” value ([7]; Cmpd 1 31 g a.i./ha) of the same compound?
**A.** 98

**Q.** And the “Obsd. observed effect (0 to 100 scale)” value ([7]; Cmpd 1 62 g a.i./ha)?
**A.** 100

**Q.** What about the “Obsd. observed effect (0 to 100 scale)” value ([7]; Cmpd 1 125 g a.i./ha) of the same compound?
**A.** 100
